From patent publication US20260232767A1, “INTERLEUKIN-23 RECEPTOR ANTAGONIST PEPTIDES FOR USE IN THE TREATMENT OF PSORIASIS” (Janssen Pharmaceutica NV, priority 2023, published 2026)

Test system: subjects with moderate-to-severe plaque psoriasis
Test: Safety, adverse events, Example 2 through Week 56
Format: in vivo, human
Conditions: 25 mg QD, through Week 56
Excerpt: The LTE safety analysis was based on randomized participants in Example who entered the present long-term extension study and received at least one dose of study intervention (including a partial dose) during the study period.

## CC(=O)NCCCC[C@@H]1NC(=O)[C@H](Cc2c[nH]c3c(C)cccc23)NC(=O)[C@H]([C@@H](C)O)NC(=O)[C@H](CC(N)=O)NC(=O)[C@@H](NC(C)=O)C(C)(C)SSC(C)(C)[C@@H](C(=O)N[C@@H](Cc2ccc(OCCN)cc2)C(=O)N[C@@H](Cc2ccc3ccccc3c2)C(=O)NC2(C(=O)N[C@@H](CCC(=O)O)C(=O)N[C@@H](CC(N)=O)C(=O)N[C@@H](Cc3cccnc3)C(=O)N(C)CC(N)=O)CCOCC2)NC1=O [IL-23 receptor antagonist peptide, Ac-[Pen]*-N-T-[W(7-Me)]-[Lys(Ac)]-[Pen]*-Phe[4-(2-aminoethoxy)]-[2-Nal]-[THP]-E-N-[3-Pal]-Sarc-NH2 (*[Pen]-[Pen]* formdisulfidebond)]
  Cardiac disorders: number of subjects: 0
  Chills: number of subjects: 0
  Cholelithiasis: number of subjects: 0
  Chronic obstructive pulmonary disease: number of subjects: 0
  Coronary artery disease: number of subjects: 0
  Cough: % of subjects: (2.3%)
  Cough: number of subjects: 1
  Decreased appetite: % of subjects: (2.3%)
  Decreased appetite: number of subjects: 1
  Depression: number of subjects: 0
  Dermal cyst: % of subjects: (2.3%)
  Dermal cyst: number of subjects: 1
  Dermatitis acneiform: number of subjects: 0
  Dermatitis contact: number of subjects: 0
  Diabetes mellitus: % of subjects: (2.3%)
  Diabetes mellitus: number of subjects: 1
  Diffuse alopecia: % of subjects: (2.3%)
  Diffuse alopecia: number of subjects: 1
  Dysuria: number of subjects: 0
  Ear and labyrinth disorders: % of subjects: (2.3%)
  Ear and labyrinth disorders: number of subjects: 1
  Endocrine disorders: number of subjects: 0
  Eye disorders: number of subjects: 0
  Eyelid skin dryness: number of subjects: 0
  Fatigue: number of subjects: 0
  General disorders and administration site conditions: % of subjects: (2.3%)
  General disorders and administration site conditions: number of subjects: 1
  Goiter: number of subjects: 0
  Haemochromatosis: number of subjects: 0
  Hand dermatitis: number of subjects: 0
  Hematuria: number of subjects: 0
  Hepatobiliary disorders: % of subjects: (2.3%)
  Hepatobiliary disorders: number of subjects: 1
  Hypercholesterolemia: number of subjects: 0
  Hyperglycemia: number of subjects: 0
  Hyperlipidemia: number of subjects: 0
  Hypertension: number of subjects: 0
  Hypertransaminasemia: number of subjects: 0
  Hypertriglyceridemia: % of subjects: (2.3%)
  Hypertriglyceridemia: number of subjects: 1
  Hypoacusis: number of subjects: 0
  Immune system disorders: number of subjects: 0
  Influenza like illness: number of subjects: 0
  Insomnia: number of subjects: 0
  Intertrigo: number of subjects: 0
  Ketonuria: number of subjects: 0
  Leukocyturia: number of subjects: 0
  Leukopenia: number of subjects: 0
  Libido decreased: number of subjects: 0
  Liver disorder: number of subjects: 0
  Lymphopenia: number of subjects: 0
  Menopause: number of subjects: 0
  Metabolism and nutrition disorders: % of subjects: (4.7%)
  Metabolism and nutrition disorders: number of subjects: 2
  Neoplasms benign, malignant and unspecified (incl cysts and polyps): number of subjects: 0
  Nephrolithiasis: number of subjects: 0
  Neutropenia: number of subjects: 0
  Night sweats: number of subjects: 0
  Non-cardiac chest pain: number of subjects: 0
  Ocular cyst: number of subjects: 0
  Oedema peripheral: number of subjects: 0
  Oropharyngeal pain: number of subjects: 0
  Procedural pain: number of subjects: 0
  Productive cough: number of subjects: 0
  Proteinuria: number of subjects: 0
  Pruritus: number of subjects: 0
  Psoriasis: number of subjects: 0
  Psychiatric disorders: number of subjects: 0
  Pyrexia: % of subjects: (2.3%)
  Pyrexia: number of subjects: 1
  Rash pruritic: number of subjects: 0
  Renal and urinary disorders: % of subjects: (2.3%)
  Renal and urinary disorders: number of subjects: 1
  Renal mass: % of subjects: (2.3%)
  Renal mass: number of subjects: 1
  Respiratory, thoracic and mediastinal disorders: % of subjects: (2.3%)
  Respiratory, thoracic and mediastinal disorders: number of subjects: 1
  Retinal vein occlusion: number of subjects: 0
  Rhinorrhoea: number of subjects: 0
  Seasonal allergy: number of subjects: 0
  Skin and subcutaneous tissue disorders: % of subjects: (7.0%)
  Skin and subcutaneous tissue disorders: number of subjects: 3
  Skin laceration: number of subjects: 0
  Skin papilloma: number of subjects: 0
  Social circumstances: number of subjects: 0
  Steatohepatitis: % of subjects: (2.3%)
  Steatohepatitis: number of subjects: 1
  Subjects with 1 or more treatment-emergent serious adverse events: 0
  Subjects with AE leading to discontinuation: Abdominal discomfort: 0
  Subjects with AE leading to discontinuation: Abdominal pain: 0
  Subjects with AE leading to discontinuation: Asthenia: 0
  Subjects with AE leading to discontinuation: Chills: 0
  Subjects with AE leading to discontinuation: Ear and labyrinth disorders: 0
  Subjects with AE leading to discontinuation: Gastrointestinal disorders: 0
  Subjects with AE leading to discontinuation: General disorders and administration site conditions: 0
  Subjects with AE leading to discontinuation: Headache: 0
  Subjects with AE leading to discontinuation: Insomnia: 0
  Subjects with AE leading to discontinuation: Nausea: 0
  Subjects with AE leading to discontinuation: Nervous system disorders: 0
  Subjects with AE leading to discontinuation: Proctalgia: 0
  Subjects with AE leading to discontinuation: Psoriasis: 0
  Subjects with AE leading to discontinuation: Psychiatric disorders: 0
  Subjects with AE leading to discontinuation: Skin and subcutaneous tissue disorders: 0
  Subjects with AE leading to discontinuation: Suicide attempt: 0
  Subjects with AE leading to discontinuation: Vertigo: 0
  Subjects with AE leading to discontinuation: Vomiting: 0
  Subjects with COVID-19 associated AE: SARS-CoV-2 test positive: 0
  Subjects with treatment-emergent AE: Influenza: 0
  Subjects with treatment-emergent serious AE: COVID-19: 0
  Subjects with treatment-emergent serious AE: Cardiac disorders: 0
  Subjects with treatment-emergent serious AE: Cerebrovascular accident: 0
  Subjects with treatment-emergent serious AE: Coronary artery disease: 0
  Subjects with treatment-emergent serious AE: Diverticulitis: 0
  Subjects with treatment-emergent serious AE: Foot deformity: 0
  Subjects with treatment-emergent serious AE: General disorders and administration site conditions: 0
  Subjects with treatment-emergent serious AE: Infected cyst: 0
  Subjects with treatment-emergent serious AE: Infections and infestations: 0
  Subjects with treatment-emergent serious AE: Injury, poisoning and procedural complications: 0
  Subjects with treatment-emergent serious AE: Intervertebral disc protrusion: 0
  Subjects with treatment-emergent serious AE: Ligament injury: 0
  Subjects with treatment-emergent serious AE: Musculoskeletal and connective tissue disorders: 0
